The target of one series is SARS-CoV-2 3CLpro (Severe acute respiratory syndrome coronavirus 2, UniProt P0DTD1). As to the kind of experiment: biochemical. It is filed as biochemical. The note with it: for inhibition activity against SARS-CoV-2 3CLpro in vitro (in words): FRET assay, 30 tested compounds.
In a further series the test system is SARS-CoV-2. As to the kind of experiment: microbe, parasite or virus in culture. The series is classed as cell-based. The note with it: Severe acute respiratory syndrome coronavirus 2, Vero C1008, read-out: IC50 of inhibition of cell infection.
A further series addresses MERS-CoV 3CLpro (Middle East respiratory syndrome-related coronavirus, UniProt K9N7C7). Briefly: biochemical.
The target in another series is SARS-CoV-2 protease (Severe acute respiratory syndrome coronavirus 2, UniProt P0DTD1). The settings on record: Fu et al., Nature Comm. 2020; cited from earlier work.
The test system of another series is SARS-CoV-2 virus. The note with it: Vero E6 cells; Choy K. et al, Antivir. Res. 2020; read-out: IC50 antiviral effect; cited from earlier work.

Molecules are shown by their SMILES.

Chain of MERS-CoV 3CLpro (K9N7C7 3248-3553 limits assumed): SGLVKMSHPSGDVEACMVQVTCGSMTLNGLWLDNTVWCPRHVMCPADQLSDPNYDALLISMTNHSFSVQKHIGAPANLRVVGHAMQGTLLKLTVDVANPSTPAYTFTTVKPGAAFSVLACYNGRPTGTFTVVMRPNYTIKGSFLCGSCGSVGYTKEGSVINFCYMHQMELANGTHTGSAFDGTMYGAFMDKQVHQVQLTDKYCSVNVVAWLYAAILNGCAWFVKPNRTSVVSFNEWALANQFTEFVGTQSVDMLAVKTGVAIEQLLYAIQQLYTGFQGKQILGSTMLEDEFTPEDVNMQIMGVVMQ

Consider `CCOC(=O)/C=C/[C@H](C[C@@H]1CCNC1=O)NC(=O)[C@@H](CC(=O)[C@@H](NC(=O)c1cc(C)on1)C(C)C)Cc1ccc(F)cc1`, for which the “inhibition activity against SARS-CoV-2 3CLpro in vitro (in words)” value (shortened to “inhibition activity”) against SARS-CoV-2 3CLpro is recorded as “not active in vitro”.

With `CCN(CC)CCCC(C)Nc1ccnc2cc(Cl)ccc12` (racemic) [chloroquine, (RS)-N′-(7-chloroquinolin-4-yl)-N,N-diethyl-pentane-1,4-diamine], the IC50 in the series on SARS-CoV-2 is around 12 µM. In addition, in the series with VeroE6 cells, the “cytotoxicity / cell viability (in words)” value is reported as “significant cytotoxicity”.

Regarding `O=C(/C=C/c1ccc(O)c(O)c1)OC1CC(OC(=O)/C=C/c2ccc(O)c(O)c2)(C(=O)O)CC(O)C1O` (stereo not drawn) [CYNARIN, 1,3-bis[[(E)-3-(3,4-dihydroxyphenyl)prop-2-enoyl]oxy]-4,5-dihydroxycyclohexane-1-carboxylic acid], at SARS-CoV-2 3CLpro, 1.81 µM corresponded to half-maximal inhibition (IC50) and the “inhibition activity” value is “active in vitro”. In addition, at MERS-CoV 3CLpro, the midpoint of inhibition, the IC50, lay at 16.7 µM.

For the compound `CN(C)[C@@H]1C(O)=C(C(N)=O)C(=O)[C@@]2(O)C(O)=C3C(=O)c4c(O)c(NC(=O)CN5CCCC5)cc(F)c4C[C@H]3C[C@@H]12` [ERAVACYCLINE diHcl, (4S,4aS,5aR,12aS)-4-(Dimethylamido)-7-fluoro-3,10,12,12a-tetrahydroxy-1,11-dioxo-9-[(1-pyrrolidinylacetyl)amino]-1,4,4a,5,5a,6,11,12a-octahydro-2-tetracenecarboxamide], the IC50 in the series on SARS-CoV-2 was 30.6 µM; against SARS-CoV-2 3CLpro, 1.65 µM; at MERS-CoV 3CLpro it was 16.4 µM. In addition, the “inhibition activity” value against SARS-CoV-2 3CLpro is on record as “active in vitro”. In the series on VeroE6 cells, the “cytotoxicity / cell viability (in words)” value is on record as “without affecting cell viability”.

For `COc1cccc(OCCCN)c1-c1cc(Nc2cnc(C#N)cn2)n[nH]1` [PREXASERTIB diHCl, 5-((5-(2-(3-Aminopropoxy)-6-methoxyphenyl)-1H-pyrazol-3-yl)amino)-2-pyrazinecarbonitrile], on SARS-CoV-2 3CLpro, inhibition was half-maximal at 2 µM (IC50) and the “inhibition activity” value is given as “active in vitro”. The compound also yielded an IC50 against MERS-CoV 3CLpro of 12.4 µM.

On to `CC(C)C[C@H](NC(=O)[C@H](CCc1ccccc1)NC(=O)CN1CCOCC1)C(=O)N[C@@H](Cc1ccccc1)C(=O)N[C@@H](CC(C)C)C(=O)[C@@]1(C)CO1` [carfilzomib], for which, on SARS-CoV-2 protease, the “inhibition of SARS-CoV-2 protease (in words)” value is on record as “failed to inhibit”.

In the case of `CC[C@H]1CN2CCc3cc(OC)c(OC)cc3[C@@H]2C[C@@H]1C[C@H]1NCCc2cc(OC)c(OC)cc21` [emetine], the IC50 in the series on SARS-CoV-2 virus was 0.46 µM.

As for `COC(=O)C[C@](O)(CCCC(C)(C)O)C(=O)O[C@@H]1C(OC)=C[C@]23CCCN2CCc2cc4c(cc2[C@H]13)OCO4` [homorringtonine, 1-((1S,3aR,14bS)-2-Methoxy-1,5,6,8,9,14b-hexahydro-4H-cyclopenta(a)(1,3)dioxolo(4,5-h)pyrrolo(2,1-b)(3)benzazepin-1-yl) 4-methyl (2R)-2-hydroxy-2-(4-hydroxy-4-methylpentyl)butanedioate], in the series on SARS-CoV-2 virus, the IC50 is 2.55 µM.

Consider `CCC(CC)COC(=O)[C@H](C)N[P@](=O)(OC[C@H]1O[C@@](C#N)(c2ccc3c(N)ncnn23)[C@H](O)[C@@H]1O)Oc1ccccc1` [remdesivir, (2S)-2-{(2R,3S,4R,5R)-[5-(4-Aminopyrrolo[2,1-f][1,2,4]triazin-7-yl)-5-cyano-3,4-dihydroxy-tetrahydro-furan-2-ylmethoxy]phenoxy-(S)-phosphorylamino}propionic acid 2-ethyl-butyl ester], for which the IC50 in the series on SARS-CoV-2 was around 12 µM.

In general, IC50 refers to the midpoint of a concentration-inhibition curve.
